# In patent US10369145B2, “Coumarin derivatives and methods of use in treating hyperproliferative diseases” (DISCOVERYBIOMED, INC., priority 2013, dated 2019):
# Legend:
# [1] = test system: WT cells (cloned non-cystic kidney tissue cells); assay: Concentration-response in primary cultures cloned from non-cystic kidney tissue; type: cell-based; details: 72 hour treatment
# Protocol: (§1) The concentration-response effects of Compound DBM 228, Compound DBM 308, Compound DBM 101, and Compound DBM 328 were determined in primary cultures derived as ‘clones’ from cystic versus non-cystic kidney tissue. CRC graphs, IC50 values, and the percent maximum inhibition versus lowest doses without effect were calculated with GraphPad Prism software. […] There was also a marked separation in effect between hyperproliferative PKD cells (FIG. 5A and Table 3) and WT cells (FIG. 5B and Table 4).
# [2] = test system: human cystic ADPKD and non-cystic renal epithelial cells; assay: Proliferating versus confluent cystic ADPKD and normal renal cells; type: cell-based
# Protocol: The compounds described herein are effective for inhibiting cellular proliferation in hyperproliferative cell types. To study the effects of these compounds, an assay was developed to differentiate the effects of the compounds on proliferating versus confluent cells. The assay design generates a proliferating density 24 hours after seeding and provides a 3-day active cell growth/doubling window in which to gauge the anti-proliferative effect of the compounds described herein. […] In this 3-day growth window, cell number increases with daily doublings across the 72-hour period (see FIG. 1).
# In each assay design, compounds were added at the 24-hour timepoint after cell seeding. The effect of the compounds, relative to vehicle control and to VelCade (a proteasome inhibitor approved in the U.S. for treating relapsed multiple myeloma and mantle cell lymphoma) as a positive control, was assessed across the 3-day growth window for proliferating cells and on an already near confluent culture of cells for the same time period. […]
# Cell number at the end of the assay was determined using the CELLTITER-GLO Luminescent Cell Viability Assay (Promega; Madison, Wis.). The CELLTITER-GLO Luminescent Cell Viability Assay is a homogeneous method of determining the number of viable cells in culture based on quantitation of the ATP present, an indicator of metabolically active cells. […]
# [3] = test system: hyperproliferative PKD cells (cloned polycystic kidney tissue cells); assay: Concentration-response in primary cultures cloned from cystic kidney tissue; type: cell-based; details: 72 hour treatment; for IC50 / Max inhibition: hyperproliferative PKD cells
# Protocol: as §1
# myeloma cells = type: cell-based; details: for GI50 / TGI / efficacy and potency (FIG. 4): myeloma cells; for GI50 / TGI: 48 h drug exposure
# Protocol: For a typical screening experiment to identify the compounds, cells were seeded into 96- or 384-well microtiter plates at plating densities pre-determined for each cell line to ensure drug exposure occurs during the proliferative phase well before confluency is reached. After seeding, cells were incubated for 24 h prior to addition of experimental drugs. After 24 h, a test plate was assayed (CellTiterGlo—measurement of cytosolic ATP) to determine a baseline measurement of the cell population for each cell line at the time of drug addition. Experimental drugs were then added and cells were cultured for a 48 h drug exposure window. […] Values were calculated for each of these three parameters if the level of activity was reached; however, if the effect was not reached or was exceeded, the value for that parameter was expressed as greater or less than the maximum or minimum concentration tested.
# NCI/ADR-RES = details: for potency in multi-drug resistant line, in words (FIG. 9): NCI-ADR/RES versus drug-responsive cells
# Text: TGI means the drug concentration resulting in total growth inhibition or “cytostasis.” LC50 is the concentration of drug resulting in a 50% reduction in the measured cytosolic ATP at the end of the drug treatment as compared to that at the beginning, indicating a net loss of cells following treatment (cytotoxicity).
# A major limitation with the anti-mitotic drugs in particular and in conventional chemotherapeutics in general, is their susceptibility to cellular mechanisms of adaptive/intrinsic multi-drug resistance (i.e., MDR efflux pumps such as p-glycoprotein, MRP1).
# tubulin = assay: Biochemical tubulin polymerization; details: FIG. 11C
# Protocol: Following 24 hours of treatment with Compound DBM 228, Compound DBM 318, and Compound DBM 328, caspase 3/7 activation in U251MG cells was determined. The detection of caspase 3/7 activation in U251MG cells indicates activation of apoptosis. Tubulin polymerization was determined for Compounds DBM 227, DBM 228, DBM 308, DBM 318, DBM 701, DBM 707, DBM 715, paclitaxel, vincristine, and negative control Compound DBM 328. […] Paclitaxel served as polymerization enhancer control and vincristine served as polymerization inhibitor control.
# NCI-60 cell panel = assay: NCI-60 cell panel, whole panel; type: cell-based, human; details: average in the NCI-60 cell panel
# [4] = test system: primary human glioblastoma multiforme (GBM) cells; assay: Neurosphere growth of primary human GBM cells; type: cell-based; details: GBM cells grown in vitro on 3D neurospheres
# Text: Data are expressed as mean±SEM and represent at least two independent experiments with sample replicates.
# [5] = test system: primary human idiopathic pulmonary fibrosis (IPF) myofibroblasts; assay: Growth of primary human IPF myofibroblasts in vitro; type: cell-based; details: CRC
IC50 [1],GI50 (myeloma cells),SMILES,Max inhibition [1],IC50 [3],Max inhibition [3],CC50 (myeloma cells),TGI (myeloma cells),"effect on biochemical tubulin polymerization, in words (tubulin)",efficacy and potency (FIG. 4) (myeloma cells),other results
> 100000 nM,,COc1ccccc1Nc1nc(-c2cc3cccc(OC)c3oc2=O)cs1 [Compound DBM 101],48%,7200 nM,77%,,,,,"effect, in words ([2]; confluent diseased cells and proliferating and confluent normal cells): only partially affected and at mid-micromolar doses; cytostatic effects, in words ([2]; proliferating cystic ADPKD cells): selective for hyperproliferative ‘diseased’ cells at potent nanomolar doses"
,137 nM,COc1ccccc1Nc1nc(-c2cc3cccc([N+](=O)[O-])c3oc2=O)cs1 [Compound DBM 227],,,,> 4000 nM,404 nM,modestly inhibited,,"IC50 (NCI/ADR-RES; read-out: potency in the NCI-ADR/RES cell line, multi-drug resistant NCI-ADR/RES): 100 nM; GI50 (NCI-60 cell panel): 250 nM"
> 100000 nM,166 nM,COc1ccccc1Nc1nc(-c2cc3cccc(Cl)c3oc2=O)cs1 [Compound DBM 308],52%,540 nM,84%,> 4000 nM,247 nM,modestly inhibited,significant efficacy and potency,"concentration giving equivalent cytotoxic effect [4]: 3 µM; cytostatic effect, in words [4]: cytostatic effect at nanomolar doses; effect on neurosphere growth, in words [4]: dose-dependent growth arrest to cytotoxic effect; cytostatic effect, in words [3]: potent and effective analog"
,133 nM,COc1ccccc1Nc1nc(-c2cc3cccc(Br)c3oc2=O)cs1 [Compound DBM 318],,,,226 nM,164 nM,modestly inhibited,significant efficacy and potency,
> 100000 nM,2110 nM,COc1ccccc1Nc1nc(-c2cc3cccc(C(=O)O)c3oc2=O)cs1 [Compound DBM 328],28%,78000 nM,48%,> 4000 nM,">4,000 nM",also inhibited microtubule polymerization,,"anti-proliferative effect, in words [5]: without effect throughout the CRC"
,131 nM,COc1ccccc1Nc1nc(-c2cc3cccc(C)c3oc2=O)cs1 [Compound DBM 707],,,,544 nM,183 nM,modestly inhibited,significant efficacy and potency,
,,COc1ccccc1Nc1nc(-c2cc3ccc(N)c([N+](=O)[O-])c3oc2=O)cs1 [Compound DBM 715],,,,,,modestly inhibited,significant efficacy and potency,
,,"Cn1nnc2c(C(N)=O)ncn2c1=O [TMZ, temozolomide, reference compound]",,,,,,,,concentration giving equivalent cytotoxic effect [4]: 500 µM
,,"CC(=O)O[C@H]1C(=O)[C@@]2(C)[C@H]([C@H](OC(=O)c3ccccc3)[C@]3(O)C[C@H](OC(=O)[C@H](O)[C@@H](NC(=O)c4ccccc4)c4ccccc4)C(C)=C1C3(C)C)[C@]1(OC(C)=O)CO[C@@H]1C[C@@H]2O [paclitaxel, reference compound]",,,,,,,,"potency in multi-drug resistant line, in words (FIG. 9) (NCI/ADR-RES): significantly right-shifted"
,,"CC[C@]1(O)C[C@H]2CN(CCc3c([nH]c4ccccc34)[C@@](C(=O)OC)(c3cc4c(cc3OC)N(C=O)[C@H]3[C@@](O)(C(=O)OC)[C@H](OC(C)=O)[C@]5(CC)C=CCN6CC[C@]43[C@@H]65)C2)C1 [vincristine, reference compound]",,,,,,,,"potency in multi-drug resistant line, in words (FIG. 9) (NCI/ADR-RES): significantly right-shifted"
